The values below come from PubChem BioAssay (NCI).

The structures appear in SMILES notation. “And” between values parts separate entries of the source, which are not always exact repeats. Identical values can stand only once.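 Five concentrations, 48 hours, 96-well plates. Abbreviation: GI50, concentration required for 50% inhibition of growth. TGI is the concentration that stops growth completely.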

Among the test systems are UACC-62 melanoma; SW-620 colon; ACHN renal; HOP-62 NSCLC; NCI-H23 lung; U251 CNS; OVCAR-3 ovarian; HT29 colon.
What all share (test): DTP human tumour cell line panel, 48 h

What is called GI50 is the concentration that inhibits growth by half. As usually defined, the TGI is the concentration giving total growth inhibition. Low readings indicate greater sensitivity of the cells, high ones lower sensitivity of the cells. With `C=C1C(=O)O[C@H]2[C@H]1CC/C(COC(=O)CCCCCC(=O)OC/C1=C/CC[C@@]3(C)O[C@H]3[C@H]3OC(=O)C(=C)[C@@H]3CC1)=C\CC[C@@]1(C)O[C@@H]21`, the GI50 with UACC-62 melanoma was 2.02 µM; in the assay with SW-620 colon, 1.35 µM; in the assay on ACHN renal it was 1.4 µM; in the assay on HOP-62 NSCLC, 2.34 µM; in the assay with NCI-H23 lung it was 2.72 µM; in the assay on U251 CNS it was 2.64 µM. The results for the GI50 with OVCAR-3 ovarian and with HT29 colon were 1.11 µM and 1.97 µM, respectively. The concentration for total growth inhibition (TGI) worked out at 4.92 µM with UACC-62 melanoma; 3.14 µM in the assay on SW-620 colon; 3.1 µM in the assay with ACHN renal; 6.46 µM in the assay with HOP-62 NSCLC; 9.98 µM in the assay with NCI-H23 lung; 9.61 µM in the assay on U251 CNS. Also, the TGI in the assay with OVCAR-3 ovarian is 2.38 µM; with HT29 colon it was 3.84 µM.

With `[2H]C([2H])([2H])NC(=O)c1nnc(NC(=O)C2CC2)cc1Nc1cccc(-c2ncn(C)n2)c1OC`, the GI50 in the assay with UACC-62 melanoma is 91.6 µM; with SW-620 colon it was 41.6 µM; in the assay on ACHN renal it was 5.53 µM; in the assay with HOP-62 NSCLC, 15.5 µM; in the assay with NCI-H23 lung it was 91.9 µM; in the assay on U251 CNS it was 59.5 µM. The GI50 in the assay with OVCAR-3 ovarian is 41.3 µM; in the assay with HT29 colon it was 44.6 µM. In addition, the total growth inhibition concentration (TGI) in the assay on UACC-62 melanoma, in the assay on SW-620 colon, in the assay on ACHN renal, with HOP-62 NSCLC, in the assay with NCI-H23 lung and in the assay with U251 CNS was above 100 µM each time. For the same molecule, the TGI with OVCAR-3 ovarian and in the assay with HT29 colon was above 100 µM in each case.

As for `CCCCNNC(=O)c1ccc(Br)cc1`, the GI50 is 1.3 µM with UACC-62 melanoma; 2.17 µM with SW-620 colon; 2.67 µM in the assay with ACHN renal; 2.98 µM with HOP-62 NSCLC; 6.77 µM in the assay on NCI-H23 lung; 3.78 µM in the assay with U251 CNS. Also, the values for the GI50 in the assay with OVCAR-3 ovarian and in the assay with HT29 colon were 5.26 µM and 1.92 µM, respectively. For the same molecule, the TGI with UACC-62 melanoma is 7.51 µM; in the assay with SW-620 colon, above 50 µM; in the assay with ACHN renal it was above 36.1 µM; with HOP-62 NSCLC, above 34.2 µM; in the assay on NCI-H23 lung, above 50 µM; in the assay on U251 CNS it was 28.5 µM. In addition, the values for the TGI with OVCAR-3 ovarian and in the assay with HT29 colon were above 50 µM and above 39 µM, respectively.

As for `CCC(=O)N1C/C(=C/c2ccc(Cl)cc2)C(=O)/C(=C/c2ccc(Cl)cc2)C1`, the GI50 in the assay on UACC-62 melanoma is 0.728 µM; with SW-620 colon it was 0.287 µM; in the assay on ACHN renal, 0.745 µM; in the assay with HOP-62 NSCLC it was 0.499 µM; in the assay with NCI-H23 lung, 1.44 µM; in the assay on U251 CNS, 0.28 µM. Besides, the GI50 in the assay with OVCAR-3 ovarian was 0.622 µM; in the assay on HT29 colon, 0.248 µM. The TGI came to 1.94 µM with UACC-62 melanoma; 0.94 µM in the assay with SW-620 colon; 1.98 µM in the assay on ACHN renal; 1.53 µM in the assay on HOP-62 NSCLC; 3.74 µM with NCI-H23 lung; 0.897 µM with U251 CNS. Besides, the TGI with OVCAR-3 ovarian came to 1.75 µM; with HT29 colon it was 0.622 µM.

For `CCCn1c2c(c3c(O)cccc31)C(=O)c1ccccc1-2`, the GI50 in the assay on UACC-62 melanoma was 15.2 µM; in the assay with SW-620 colon it was above 100 µM; with ACHN renal, 14.9 µM; in the assay on HOP-62 NSCLC, 8.24 µM; in the assay on NCI-H23 lung, 11.5 µM; with U251 CNS, 18.2 µM. For the same molecule, the GI50 is 31.3 µM in the assay on OVCAR-3 ovarian and 29.7 µM with HT29 colon. In addition, the TGI was 69.3 µM in the assay with UACC-62 melanoma; above 100 µM with SW-620 colon; 45.1 µM in the assay with ACHN renal; 27.6 µM in the assay on HOP-62 NSCLC; above 100 µM with NCI-H23 lung; 56.2 µM in the assay on U251 CNS. In addition, the TGI with OVCAR-3 ovarian and in the assay on HT29 colon was above 100 µM throughout.

In the case of `Cc1ccc(/C=C(\C#N)c2cc3ccccc3n2C)cc1`, the GI50 is 0.278 µM in the assay on UACC-62 melanoma; 0.361 µM in the assay with SW-620 colon; 0.783 µM with ACHN renal; 0.474 µM in the assay on HOP-62 NSCLC; 0.541 µM with NCI-H23 lung; 0.406 µM with U251 CNS. Also, the GI50 is 0.361 µM in the assay with OVCAR-3 ovarian and 0.356 µM with HT29 colon. The TGI in the assay with UACC-62 melanoma, with SW-620 colon, in the assay with ACHN renal, in the assay with HOP-62 NSCLC, in the assay with NCI-H23 lung and in the assay on U251 CNS was above 100 µM each time. The molecule further registered a TGI with HT29 colon above 100 µM.

In the case of `N#Cc1nc(-c2ccc(F)cc2)oc1S(=O)(=O)N1CCCCC1`, the GI50 is 1.62 µM in the assay on UACC-62 melanoma; 1.89 µM in the assay on SW-620 colon; 1.76 µM with ACHN renal; 5.59 µM in the assay with HOP-62 NSCLC; 2.14 µM in the assay on NCI-H23 lung; 2.22 µM in the assay on U251 CNS. The GI50 with OVCAR-3 ovarian is 1.86 µM; in the assay on HT29 colon it was 2.4 µM. In addition, the TGI turned out to be 3.01 µM with UACC-62 melanoma; 4.11 µM with SW-620 colon; 3.15 µM in the assay on ACHN renal; 25.5 µM in the assay on HOP-62 NSCLC; 4.92 µM in the assay on NCI-H23 lung; 5.31 µM with U251 CNS. The TGI in the assay with OVCAR-3 ovarian was 3.48 µM; in the assay on HT29 colon, 5.42 µM.

Regarding `O=C1NC(N/N=C\C(O)C(O)C(O)C(O)CO)=N/C1=C/c1ccccc1` (stereo unspecified), the TGI was above 100 µM with UACC-62 melanoma; > 100 µM and 83.4 µM in the assay with SW-620 colon; > 100 µM and 28.1 µM in the assay on ACHN renal; > 100 µM and 36.2 µM with HOP-62 NSCLC; > 100 µM and 36.5 µM in the assay on NCI-H23 lung; > 100 µM and 42.8 µM with U251 CNS. Further, the TGI was > 100 µM and 37.7 µM with OVCAR-3 ovarian; > 100 µM and 44.5 µM in the assay with HT29 colon. Also, the GI50 in the assay on SW-620 colon is 54.2 µM and 23 µM and > 100 µM; in the assay with ACHN renal it was 80.6 µM and 14.7 µM and > 100 µM; in the assay on HOP-62 NSCLC, > 100 µM and 19.4 µM; in the assay on NCI-H23 lung it was > 100 µM and 19.3 µM; in the assay on U251 CNS, > 100 µM and 17.5 µM; in the assay on OVCAR-3 ovarian, 97.1 µM and 20.5 µM and > 100 µM. In the assay with HT29 colon, the GI50 is > 100 µM and 23.2 µM.

Turning to `COC(=O)c1cc(-c2ccccc2)[nH]c1N/N=C/c1c(Cl)cccc1Cl`, the GI50 was 0.278 µM with UACC-62 melanoma; 0.279 µM in the assay with SW-620 colon; 0.858 µM in the assay on ACHN renal; 0.471 µM in the assay on HOP-62 NSCLC; 0.438 µM in the assay with NCI-H23 lung; 0.332 µM in the assay with U251 CNS. The values for the GI50 in the assay on OVCAR-3 ovarian and with HT29 colon were 0.17 µM and 0.35 µM, respectively. The TGI in the assay on UACC-62 melanoma was 9 µM; with SW-620 colon, above 38.8 µM; in the assay with ACHN renal, 26.4 µM; with HOP-62 NSCLC it was above 33.6 µM; with NCI-H23 lung, 15.4 µM; in the assay with U251 CNS, 3.58 µM. In addition, in the assay on OVCAR-3 ovarian, the TGI is 0.356 µM.
